In PMC4508061, “Selectivity Profiling and Biological Activity of Novel β-Carbolines as Potent and Selective DYRK1 Kinase Inhibitors” (PLoS ONE, 2015):

How the values were obtained:
Cell viability XTT assay = type: cell-based; settings: rat, PC12 cells, read-out: Viability of treated cells relative to untreated control
PC12 cells = assay: Cell viability XTT assay; type: cell-based; settings: PC12, up to 10 μM, 3 days
ABL1 = ABL1 (Homo sapiens, UniProt P00519); assay: ProQinase radiometric kinase panel; settings: mean of 2 exp.
AKT3 = AKT3 (Homo sapiens, UniProt Q9Y243); assay: ProQinase radiometric kinase panel; settings: mean of 2 exp.
Aurora-B = Aurora-B (Homo sapiens, UniProt Q96GD4); assay: ProQinase radiometric kinase panel; settings: mean of 2 exp.
AXL = AXL (Homo sapiens, UniProt P30530); assay: ProQinase radiometric kinase panel; settings: mean of 2 exp.
B-RAF = B-RAF (Homo sapiens, UniProt P15056); assay: ProQinase radiometric kinase panel; settings: mean of 2 exp.
BRSK1 = BRSK1 (Homo sapiens, UniProt Q8TDC3); assay: ProQinase radiometric kinase panel; settings: mean of 2 exp.
CK2-alpha2 = CK2-alpha2 (Homo sapiens, UniProt P19784); assay: ProQinase radiometric kinase panel; settings: mean of 2 exp.
EEF2K = EEF2K (Homo sapiens, UniProt O00418); assay: ProQinase radiometric kinase panel; settings: mean of 2 exp.
EPHB1 = EPHB1 (Homo sapiens, UniProt P54762); assay: ProQinase radiometric kinase panel; settings: mean of 2 exp.
ERBB4 = ERBB4 (Homo sapiens, UniProt Q15303); assay: ProQinase radiometric kinase panel; settings: mean of 2 exp.
ERK1 = ERK1 (Homo sapiens, UniProt P27361); assay: ProQinase radiometric kinase panel; settings: mean of 2 exp.
FES = FES (Homo sapiens, UniProt P07332); assay: ProQinase radiometric kinase panel; settings: mean of 2 exp.
FGF-R1 = FGF-R1 (Homo sapiens, UniProt P11362); assay: ProQinase radiometric kinase panel; settings: mean of 2 exp.
FGF-R2 = FGF-R2 (Homo sapiens, UniProt P21802); assay: ProQinase radiometric kinase panel; settings: mean of 2 exp.
GRK3 = GRK3 (Homo sapiens, UniProt P35626); assay: ProQinase radiometric kinase panel; settings: mean of 2 exp.
IKK-alpha = IKK-alpha (Homo sapiens, UniProt O15111); assay: ProQinase radiometric kinase panel; settings: mean of 2 exp.
MAP3K11 = MAP3K11 (Homo sapiens, UniProt Q16584); assay: ProQinase radiometric kinase panel; settings: mean of 2 exp.
MAP4K5 = MAP4K5 (Homo sapiens, UniProt Q9Y4K4); assay: ProQinase radiometric kinase panel; settings: mean of 2 exp.
MEK1 = MEK1 (Homo sapiens, UniProt Q02750); assay: ProQinase radiometric kinase panel; settings: mean of 2 exp.
MST3 = MST3 (Homo sapiens, UniProt Q9Y6E0); assay: ProQinase radiometric kinase panel; settings: mean of 2 exp.
NEK4 = NEK4 (Homo sapiens, UniProt P51957); assay: ProQinase radiometric kinase panel; settings: mean of 2 exp.
PAK1 = PAK1 (Homo sapiens, UniProt Q13153); assay: ProQinase radiometric kinase panel; settings: mean of 2 exp.
PAK2 = PAK2 (Homo sapiens, UniProt Q13177); assay: ProQinase radiometric kinase panel; settings: mean of 2 exp.
PAK4 = PAK4 (Homo sapiens, UniProt O96013); assay: ProQinase radiometric kinase panel; settings: mean of 2 exp.
PAK7 = PAK7 (Homo sapiens, UniProt Q9P286); assay: ProQinase radiometric kinase panel; settings: mean of 2 exp.
PDK1 = PDK1 (Homo sapiens, UniProt O15530); assay: ProQinase radiometric kinase panel; settings: mean of 2 exp.
PKC-beta1 = PKC-beta1 (Homo sapiens, UniProt P05771); assay: ProQinase radiometric kinase panel; settings: mean of 2 exp.
S6K-beta = S6K-beta (Homo sapiens, UniProt Q9UBS0); assay: ProQinase radiometric kinase panel; settings: mean of 2 exp.
SAK = SAK (Homo sapiens, UniProt O00444); assay: ProQinase radiometric kinase panel; settings: mean of 2 exp.
SNF1LK2 = SNF1LK2 (Homo sapiens, UniProt Q9H0K1); assay: ProQinase radiometric kinase panel; settings: mean of 2 exp.
SNK = SNK (Homo sapiens, UniProt Q9NYY3); assay: ProQinase radiometric kinase panel; settings: mean of 2 exp.
STK25 = STK25 (Homo sapiens, UniProt O00506); assay: ProQinase radiometric kinase panel; settings: mean of 2 exp.
STK39 = STK39 (Homo sapiens, UniProt Q9UEW8); assay: ProQinase radiometric kinase panel; settings: mean of 2 exp.
TGFB-R1 = TGFB-R1 (Homo sapiens, UniProt P36897); assay: ProQinase radiometric kinase panel; settings: mean of 2 exp.
TLK2 = TLK2 (Homo sapiens, UniProt Q86UE8); assay: ProQinase radiometric kinase panel; settings: mean of 2 exp.
TSSK1 = TSSK1 (Homo sapiens, UniProt Q9BXA7); assay: ProQinase radiometric kinase panel; settings: mean of 2 exp.
VEGF-R3 = VEGF-R3 (Homo sapiens, UniProt P35916); assay: ProQinase radiometric kinase panel; settings: mean of 2 exp.

SAK, sequence (O00444 whole entry): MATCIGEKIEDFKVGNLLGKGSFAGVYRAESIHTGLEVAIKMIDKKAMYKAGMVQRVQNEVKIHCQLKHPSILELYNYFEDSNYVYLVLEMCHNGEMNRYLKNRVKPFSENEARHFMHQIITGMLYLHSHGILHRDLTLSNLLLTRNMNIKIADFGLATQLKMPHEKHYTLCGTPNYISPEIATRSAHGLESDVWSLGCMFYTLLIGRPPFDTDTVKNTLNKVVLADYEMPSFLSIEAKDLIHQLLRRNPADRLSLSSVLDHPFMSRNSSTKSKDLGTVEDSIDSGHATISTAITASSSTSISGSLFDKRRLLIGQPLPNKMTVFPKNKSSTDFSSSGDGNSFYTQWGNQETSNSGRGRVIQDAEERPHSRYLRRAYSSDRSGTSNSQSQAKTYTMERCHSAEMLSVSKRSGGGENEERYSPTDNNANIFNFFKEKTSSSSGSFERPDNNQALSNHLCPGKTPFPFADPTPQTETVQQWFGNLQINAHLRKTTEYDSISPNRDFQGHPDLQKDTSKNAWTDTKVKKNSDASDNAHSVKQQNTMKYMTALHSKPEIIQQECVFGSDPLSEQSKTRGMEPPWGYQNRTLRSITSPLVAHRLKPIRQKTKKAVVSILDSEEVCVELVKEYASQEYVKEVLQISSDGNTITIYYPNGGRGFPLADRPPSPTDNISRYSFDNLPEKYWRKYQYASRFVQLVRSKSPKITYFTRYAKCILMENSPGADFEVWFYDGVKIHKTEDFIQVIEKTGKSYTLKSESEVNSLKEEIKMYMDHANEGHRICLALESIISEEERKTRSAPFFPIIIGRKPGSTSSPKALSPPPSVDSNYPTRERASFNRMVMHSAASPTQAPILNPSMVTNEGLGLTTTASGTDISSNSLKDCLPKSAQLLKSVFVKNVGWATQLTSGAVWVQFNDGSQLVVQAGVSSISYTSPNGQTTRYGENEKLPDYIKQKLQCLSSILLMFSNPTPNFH
S6K-beta, sequence (Q9UBS0 whole entry): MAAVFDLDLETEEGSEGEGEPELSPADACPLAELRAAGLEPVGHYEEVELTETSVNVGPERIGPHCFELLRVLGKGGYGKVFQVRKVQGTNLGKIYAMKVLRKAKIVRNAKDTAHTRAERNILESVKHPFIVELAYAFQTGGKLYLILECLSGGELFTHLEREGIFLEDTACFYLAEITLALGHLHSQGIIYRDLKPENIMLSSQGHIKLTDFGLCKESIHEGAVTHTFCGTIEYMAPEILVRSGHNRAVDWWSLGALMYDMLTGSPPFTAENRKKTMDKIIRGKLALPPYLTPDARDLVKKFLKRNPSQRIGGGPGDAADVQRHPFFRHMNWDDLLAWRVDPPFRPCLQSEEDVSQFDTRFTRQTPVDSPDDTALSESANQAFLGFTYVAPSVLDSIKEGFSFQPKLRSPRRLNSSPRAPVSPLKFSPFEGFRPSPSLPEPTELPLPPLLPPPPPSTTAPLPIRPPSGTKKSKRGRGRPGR
SNK, sequence (Q9NYY3 whole entry): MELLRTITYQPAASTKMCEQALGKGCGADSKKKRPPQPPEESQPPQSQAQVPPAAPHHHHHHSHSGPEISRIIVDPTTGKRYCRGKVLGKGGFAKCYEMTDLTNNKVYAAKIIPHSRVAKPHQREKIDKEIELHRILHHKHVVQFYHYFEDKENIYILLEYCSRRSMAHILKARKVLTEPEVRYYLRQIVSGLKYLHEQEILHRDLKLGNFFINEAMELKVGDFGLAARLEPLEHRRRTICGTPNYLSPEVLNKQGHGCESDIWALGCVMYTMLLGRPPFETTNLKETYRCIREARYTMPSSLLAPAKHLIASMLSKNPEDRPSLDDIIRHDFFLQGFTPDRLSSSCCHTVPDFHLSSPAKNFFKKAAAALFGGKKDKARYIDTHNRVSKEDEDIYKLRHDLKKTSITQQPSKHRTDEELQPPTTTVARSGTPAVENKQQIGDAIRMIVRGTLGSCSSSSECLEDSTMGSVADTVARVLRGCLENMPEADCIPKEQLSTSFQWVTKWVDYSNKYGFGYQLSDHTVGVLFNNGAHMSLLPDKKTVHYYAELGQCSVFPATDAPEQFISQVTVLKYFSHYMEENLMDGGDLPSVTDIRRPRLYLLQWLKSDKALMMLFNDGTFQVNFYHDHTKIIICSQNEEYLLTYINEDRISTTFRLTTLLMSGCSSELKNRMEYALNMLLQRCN
B-RAF, sequence (P15056 whole entry): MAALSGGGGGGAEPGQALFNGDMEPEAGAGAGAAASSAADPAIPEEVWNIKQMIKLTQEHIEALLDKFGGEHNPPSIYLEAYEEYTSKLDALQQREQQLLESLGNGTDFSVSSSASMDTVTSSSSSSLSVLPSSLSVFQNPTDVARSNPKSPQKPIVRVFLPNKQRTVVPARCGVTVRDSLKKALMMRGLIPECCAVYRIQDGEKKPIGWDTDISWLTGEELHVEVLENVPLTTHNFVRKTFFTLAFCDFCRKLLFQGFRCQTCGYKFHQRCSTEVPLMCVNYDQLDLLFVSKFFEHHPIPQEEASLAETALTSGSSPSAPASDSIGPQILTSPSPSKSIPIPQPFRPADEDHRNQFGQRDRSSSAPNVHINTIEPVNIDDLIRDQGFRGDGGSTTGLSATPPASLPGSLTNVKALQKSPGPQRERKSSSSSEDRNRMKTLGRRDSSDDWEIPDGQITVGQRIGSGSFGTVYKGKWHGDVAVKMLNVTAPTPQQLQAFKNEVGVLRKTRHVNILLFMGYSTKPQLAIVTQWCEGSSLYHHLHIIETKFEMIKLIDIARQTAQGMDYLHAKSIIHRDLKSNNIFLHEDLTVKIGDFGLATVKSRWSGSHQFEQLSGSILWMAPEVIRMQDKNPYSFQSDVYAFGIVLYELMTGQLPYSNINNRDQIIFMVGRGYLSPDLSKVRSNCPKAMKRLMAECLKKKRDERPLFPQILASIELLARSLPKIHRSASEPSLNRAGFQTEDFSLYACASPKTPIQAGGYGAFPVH
MEK1, sequence (Q02750 whole entry): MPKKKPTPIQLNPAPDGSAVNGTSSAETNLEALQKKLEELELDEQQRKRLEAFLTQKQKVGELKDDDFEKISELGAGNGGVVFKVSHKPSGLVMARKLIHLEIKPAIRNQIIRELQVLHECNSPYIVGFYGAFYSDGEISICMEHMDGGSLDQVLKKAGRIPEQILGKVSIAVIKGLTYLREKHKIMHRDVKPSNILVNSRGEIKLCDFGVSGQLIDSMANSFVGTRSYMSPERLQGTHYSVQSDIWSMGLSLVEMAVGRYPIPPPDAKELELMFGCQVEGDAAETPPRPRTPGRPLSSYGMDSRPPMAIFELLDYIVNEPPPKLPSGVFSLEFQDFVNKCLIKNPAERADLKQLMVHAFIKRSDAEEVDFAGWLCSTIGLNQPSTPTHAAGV
ERBB4, sequence (Q15303 26-1308): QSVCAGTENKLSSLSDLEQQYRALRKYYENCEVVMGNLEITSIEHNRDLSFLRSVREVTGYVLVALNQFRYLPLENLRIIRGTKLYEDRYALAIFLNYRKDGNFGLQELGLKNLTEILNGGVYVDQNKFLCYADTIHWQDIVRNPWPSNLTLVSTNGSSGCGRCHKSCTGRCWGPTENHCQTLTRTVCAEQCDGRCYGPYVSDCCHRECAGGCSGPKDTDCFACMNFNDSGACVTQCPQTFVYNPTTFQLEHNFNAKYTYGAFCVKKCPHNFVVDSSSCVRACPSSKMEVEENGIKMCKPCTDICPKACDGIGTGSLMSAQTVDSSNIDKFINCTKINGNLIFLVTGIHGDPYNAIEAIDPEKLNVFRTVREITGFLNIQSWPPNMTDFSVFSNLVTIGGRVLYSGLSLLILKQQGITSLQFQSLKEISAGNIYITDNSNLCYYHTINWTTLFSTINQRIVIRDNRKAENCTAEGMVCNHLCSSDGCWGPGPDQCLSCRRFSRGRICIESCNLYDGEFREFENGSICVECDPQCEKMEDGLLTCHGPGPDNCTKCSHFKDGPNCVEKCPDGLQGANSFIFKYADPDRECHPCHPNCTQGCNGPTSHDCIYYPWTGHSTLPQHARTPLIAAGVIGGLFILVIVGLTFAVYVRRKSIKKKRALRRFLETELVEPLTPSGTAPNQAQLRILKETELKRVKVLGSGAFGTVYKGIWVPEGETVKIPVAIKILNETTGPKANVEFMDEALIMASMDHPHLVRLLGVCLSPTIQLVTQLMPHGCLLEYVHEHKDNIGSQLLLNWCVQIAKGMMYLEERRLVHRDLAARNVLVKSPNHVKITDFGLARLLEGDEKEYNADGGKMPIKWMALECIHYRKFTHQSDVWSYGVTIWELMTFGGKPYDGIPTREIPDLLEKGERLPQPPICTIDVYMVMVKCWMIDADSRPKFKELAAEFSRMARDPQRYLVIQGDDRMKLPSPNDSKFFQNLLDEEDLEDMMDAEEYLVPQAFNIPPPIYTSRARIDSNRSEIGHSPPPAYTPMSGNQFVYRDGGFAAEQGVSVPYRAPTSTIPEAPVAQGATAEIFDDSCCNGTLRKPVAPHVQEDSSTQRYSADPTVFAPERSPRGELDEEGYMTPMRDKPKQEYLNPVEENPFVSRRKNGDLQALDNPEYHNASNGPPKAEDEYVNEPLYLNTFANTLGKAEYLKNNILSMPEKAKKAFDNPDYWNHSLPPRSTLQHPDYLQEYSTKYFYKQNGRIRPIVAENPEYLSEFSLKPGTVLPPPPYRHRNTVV
Aurora-B, sequence (Q96GD4 whole entry): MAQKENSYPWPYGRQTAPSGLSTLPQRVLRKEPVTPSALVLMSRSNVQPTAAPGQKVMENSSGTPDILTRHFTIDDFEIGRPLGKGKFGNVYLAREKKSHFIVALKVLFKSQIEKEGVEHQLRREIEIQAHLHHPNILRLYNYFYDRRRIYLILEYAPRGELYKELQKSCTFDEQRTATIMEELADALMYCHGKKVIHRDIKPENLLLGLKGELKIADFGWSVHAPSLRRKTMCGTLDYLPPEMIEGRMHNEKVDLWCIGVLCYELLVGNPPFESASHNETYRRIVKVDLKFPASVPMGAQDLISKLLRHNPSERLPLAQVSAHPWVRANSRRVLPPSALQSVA

## COc1ccc2c3ccnc(Cl)c3n(CC#N)c2c1 [AnnH75]
Cell viability XTT assay; PC12, 1 μM
  viability at 3 days, 1 µM: 94%
Cell viability XTT assay; PC12, 3 μM
  viability at 3 days, 3 µM: 100%
Cell viability XTT assay; PC12, 10 μM
  viability at 3 days, 10 µM: 95%
PC12 cells
  cytotoxicity: minimal cytotoxicity
ABL1
  residual activity at 1 µM, Mean: 95 % of control
AKT3
  residual activity at 1 µM, Mean: 104 % of control
Aurora-B
  residual activity at 1 µM, Mean: 104 % of control
AXL
  residual activity at 1 µM, Mean: 95 % of control
B-RAF
  residual activity at 1 µM, Mean: 105 % of control
BRSK1
  residual activity at 1 µM, Mean: 107 % of control
CK2-alpha2
  residual activity at 1 µM, Mean: 101 % of control
EEF2K
  residual activity at 1 µM, Mean: 98 % of control
EPHB1
  residual activity at 1 µM, Mean: 89 % of control
ERBB4
  residual activity at 1 µM, Mean: 90 % of control
ERK1
  residual activity at 1 µM, Mean: 87 % of control
FES
  residual activity at 1 µM, Mean: 93 % of control
FGF-R1
  residual activity at 1 µM, Mean: 97 % of control
FGF-R2
  residual activity at 1 µM, Mean: 85 % of control
GRK3
  residual activity at 1 µM, Mean: 92 % of control
IKK-alpha
  residual activity at 1 µM, Mean: 60 % of control
MAP3K11
  residual activity at 1 µM, Mean: 98 % of control
MAP4K5
  residual activity at 1 µM, Mean: 84 % of control
MEK1
  residual activity at 1 µM, Mean: 72 % of control
MST3
  residual activity at 1 µM, Mean: 104 % of control
NEK4
  residual activity at 1 µM, Mean: 98 % of control
PAK1
  residual activity at 1 µM, Mean: 103 % of control
PAK2
  residual activity at 1 µM, Mean: 105 % of control
PAK4
  residual activity at 1 µM, Mean: 94 % of control
PAK7
  residual activity at 1 µM, Mean: 90 % of control
PDK1
  residual activity at 1 µM, Mean: 99 % of control
PKC-beta1
  residual activity at 1 µM, Mean: 93 % of control
S6K-beta
  residual activity at 1 µM, Mean: 102 % of control
SAK
  residual activity at 1 µM, Mean: 112 % of control
SNF1LK2
  residual activity at 1 µM, Mean: 91 % of control
SNK
  residual activity at 1 µM, Mean: 92 % of control
STK25
  residual activity at 1 µM, Mean: 96 % of control
STK39
  residual activity at 1 µM, Mean: 85 % of control
TGFB-R1
  residual activity at 1 µM, Mean: 104 % of control
TLK2
  residual activity at 1 µM, Mean: 108 % of control
TSSK1
  residual activity at 1 µM, Mean: 85 % of control
VEGF-R3
  residual activity at 1 µM, Mean: 93 % of control
